Measured values reported in patent US10294207B2, “Pyrazole derivatives as TNIK, IKKϵ and TBK1 inhibitor and pharmaceutical composition comprising same” (GREEN CROSS CORPORATION, priority 2015, dated 2019).

How the values were obtained:
Format in all cases: biochemical
Conditions in all cases: luminometer
TNIK = biological target: T1, TNIK (Homo sapiens, UniProt Q9UKE5); assay: TNIK inhibition, ADP-Glo Kinase Assay
T1 construct: purchased Promega V4158
Method: Inhibition activities on TNIK, IKKε and TBK1 were evaluated using the compounds of Examples 1 to 254.
The inhibition activities on TNIK, IKKε and TBK1 were measured by a luminometer, TNIK/IKKε/TBK1 Kinase Enzyme System (Promega, Ca# V4158; Invitrogen, PR8031B, Promega, Ca# V3991) and ADP-Glo Kinase Assay using ADP-Glo™ Kinase Analysis Kit (Promega, Ca# V9101) and a kinase reaction buffer [40 mM Tris(pH 7.5), 20 mM MgCl2, 0.1 mg/mL BSA] in accordance with the manufacturer's protocol.

TBK1 = biological target: T2, TBK1 (Homo sapiens, UniProt Q9UHD2); assay: TBK1 inhibition, ADP-Glo Kinase Assay
T2 construct: purchased Promega V3991
T2 sequence (Q9UHD2 1-729): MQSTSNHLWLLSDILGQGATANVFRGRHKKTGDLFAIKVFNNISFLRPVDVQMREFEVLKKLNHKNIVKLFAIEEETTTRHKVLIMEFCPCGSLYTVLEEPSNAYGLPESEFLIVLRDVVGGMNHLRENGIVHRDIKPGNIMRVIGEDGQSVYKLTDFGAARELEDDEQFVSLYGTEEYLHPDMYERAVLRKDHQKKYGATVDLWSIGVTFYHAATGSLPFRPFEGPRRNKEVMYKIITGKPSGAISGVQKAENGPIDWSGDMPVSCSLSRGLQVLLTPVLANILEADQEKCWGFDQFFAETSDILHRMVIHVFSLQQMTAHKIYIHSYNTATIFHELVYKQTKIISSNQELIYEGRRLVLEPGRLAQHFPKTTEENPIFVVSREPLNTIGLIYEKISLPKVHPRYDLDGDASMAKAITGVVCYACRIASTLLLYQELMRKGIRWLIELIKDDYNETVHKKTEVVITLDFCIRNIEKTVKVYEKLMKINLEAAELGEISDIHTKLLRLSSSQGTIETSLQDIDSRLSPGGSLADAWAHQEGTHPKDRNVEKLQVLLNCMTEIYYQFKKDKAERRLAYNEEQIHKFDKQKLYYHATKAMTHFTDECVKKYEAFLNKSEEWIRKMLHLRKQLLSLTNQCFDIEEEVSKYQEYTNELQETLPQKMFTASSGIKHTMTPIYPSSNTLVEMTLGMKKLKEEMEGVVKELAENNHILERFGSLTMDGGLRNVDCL
Procedure, shortened: (§1)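 Each recombinant kinase enzyme system was run per the manufacturer's protocol in 40 mM Tris pH 7.5, 20 mM MgCl2 and 0.1 mg/mL BSA. Kinase activity was detected as ADP formation by ADP-Glo luminescence.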

IKKε = biological target: T3, IKKε (Homo sapiens, UniProt Q14164); assay: IKKε inhibition, ADP-Glo Kinase Assay
T3 construct: purchased Invitrogen PR8031B
T3 sequence (Q14164 1-716): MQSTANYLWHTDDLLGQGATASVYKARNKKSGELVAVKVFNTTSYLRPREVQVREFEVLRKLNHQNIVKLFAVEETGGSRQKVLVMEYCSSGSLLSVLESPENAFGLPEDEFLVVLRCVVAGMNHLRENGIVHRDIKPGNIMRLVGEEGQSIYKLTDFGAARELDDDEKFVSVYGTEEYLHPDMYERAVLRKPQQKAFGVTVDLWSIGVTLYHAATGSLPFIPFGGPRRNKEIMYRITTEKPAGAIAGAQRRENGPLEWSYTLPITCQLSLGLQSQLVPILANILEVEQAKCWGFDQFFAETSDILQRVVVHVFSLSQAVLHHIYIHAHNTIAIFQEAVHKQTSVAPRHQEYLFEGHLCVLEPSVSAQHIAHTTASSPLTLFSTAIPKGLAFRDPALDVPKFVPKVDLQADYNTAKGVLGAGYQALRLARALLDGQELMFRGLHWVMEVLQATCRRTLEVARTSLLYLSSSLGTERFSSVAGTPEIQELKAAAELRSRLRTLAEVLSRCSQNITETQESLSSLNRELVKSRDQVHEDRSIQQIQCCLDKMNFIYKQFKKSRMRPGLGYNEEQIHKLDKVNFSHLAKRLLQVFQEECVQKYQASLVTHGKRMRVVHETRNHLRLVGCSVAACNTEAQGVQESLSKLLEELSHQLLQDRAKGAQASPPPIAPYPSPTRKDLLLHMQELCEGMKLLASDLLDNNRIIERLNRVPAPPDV
Procedure, shortened: as §1

T1 sequence (Q9UKE5 1-367 limits assumed): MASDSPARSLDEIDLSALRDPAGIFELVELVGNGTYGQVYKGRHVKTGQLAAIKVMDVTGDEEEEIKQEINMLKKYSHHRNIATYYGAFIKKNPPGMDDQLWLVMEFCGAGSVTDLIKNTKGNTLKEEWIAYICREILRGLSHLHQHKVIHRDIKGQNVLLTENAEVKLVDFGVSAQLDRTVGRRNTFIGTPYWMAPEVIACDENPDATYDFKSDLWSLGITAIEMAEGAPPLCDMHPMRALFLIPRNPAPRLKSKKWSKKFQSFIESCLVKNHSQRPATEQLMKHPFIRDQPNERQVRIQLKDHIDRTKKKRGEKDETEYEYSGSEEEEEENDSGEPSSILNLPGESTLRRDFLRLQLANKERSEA

IC50 (TNIK) [µM] | IC50 (TBK1) [µM] | IC50 (IKKε) [µM] | SMILES
0.085 | 0.12 | 0.32 | Cc1cnc(-c2cc3[nH]nc(NC(=O)c4ccc(NCCN5CCCCC5)cc4)c3s2)o1 [Example 224, N-(5-(5-methyloxazol-2-yl)-1H-thieno[3,2-c]pyrazol-3-yl)-4-((2-(piperidin-1-yl)ethyl)amino)benzamide]
0.049 | 0.13 | 0.35 | Cc1cnc(-c2cc3[nH]nc(NC(=O)c4ccc(N5CCN(C)CC5)cc4)c3s2)o1 [Example 225, N-(5-(5-methyloxazol-2-yl)-1H-thieno[3,2-c]pyrazol-3-yl)-4-(4-methylpiperazin-1-yl)benzamide]
2.86 | > 10 | – | COc1ccc(-c2n[nH]c3cc(C(=O)NC(C)C)sc23)cc1 [Example 233, N-isopropyl-3-(4-methoxyphenyl)-1H-thieno[3,2-c]pyrazole-5-carboxamide]
0.34 | > 10 | – | COc1ccc(-c2n[nH]c3cc(-c4ncc(C)o4)sc23)cc1 [Example 235, 2-(3-(4-methoxyphenyl)-1H-thieno[3,2-c]pyrazol-5-yl)-5-methyloxazole]
1.27 | > 10 | – | COC(=O)c1cc2[nH]nc(-c3ccccc3)c2s1 [Example 236, methyl 3-phenyl-1H-thieno[3,2-c]pyrazole-5-carboxylate]
0.86 | > 10 | – | COC(=O)c1cc2[nH]nc(-c3ccc(F)cc3)c2s1 [Example 239, methyl 3-(4-fluorophenyl)-1H-thieno[3,2-c]pyrazole-5-carboxylate]
2.85 | > 10 | – | CCNC(=O)c1cc2[nH]nc(-c3ccc(F)cc3)c2s1 [Example 240, N-ethyl-3-(4-fluorophenyl)-1H-thieno[3,2-c]pyrazole-5-carboxamide]
1.09 | > 10 | – | CCNC(=O)c1cc2[nH]nc(-c3ccc(N4CCOCC4)cc3)c2s1 [Example 241, N-ethyl-3-(4-morpholinophenyl)-1H-thieno[3,2-c]pyrazole-5-carboxamide]
> 20 | > 10 | – | O=C(NCCN1CCOCC1)c1cc2[nH]nc(-c3ccc(F)cc3)c2s1 [Example 242, 3-(4-fluorophenyl)-N-(2-morpholinoethyl)-1H-thieno[3,2-c]pyrazole-5-carboxamide]
0.15 | > 10 | – | Cc1cnc(-c2cc3[nH]nc(-c4ccc(N5CCOCC5)cc4)c3s2)o1 [Example 243, 4-(4-(5-(5-methyloxazol-2-yl)-1H-thieno[3,2-c]pyrazol-3-yl)phenyl)morpholine]
0.25 | 1.4 | – | Cc1cnc(-c2cc3[nH]nc(NC(=O)c4ccc(N(C)C)cc4)c3s2)s1 [Example 251, 4-(dimethylamino)-N-(5-(5-methylthiazol-2-yl)-1H-thieno[3,2-c]pyrazol-3-yl)benzamide]
0.41 | 1.3 | – | CCc1cnc(-c2cc3[nH]nc(NC(=O)c4ccc(N5CCOCC5)cc4)c3s2)s1 [Example 252, N-(5-(5-ethylthiazol-2-yl)-1H-thieno[3,2-c]pyrazol-3-yl)-4-morpholinobenzamide]
0.28 | 0.62 | – | Cc1cnc(-c2cc3[nH]nc(NC(=O)c4ccc(NCCN5CCCCC5)cc4)c3s2)s1 [Example 253, N-(5-(5-methylthiazol-2-yl)-1H-thieno[3,2-c]pyrazol-3-yl)-4-((2-(piperidin-1-yl)ethyl)amino)benzamide]
0.3 | > 10 | – | COC(=O)c1cc2[nH]nc(-c3ccc(N4CCOCC4)cc3)c2s1 [Example 254, methyl 3-(4-morpholinophenyl)-1H-thieno[3,2-c]pyrazole-5-carboxylate]
